Among the data in PMC11852235, “Discovery of Effective Inhibitors Against Phosphodiesterase 9, a Potential Therapeutic Target of Alzheimer’s Disease with Antioxidant Capacities” (Antioxidants, 2025) are IC50, inhibition and ORAC values, retold here.

For one experiment, the system named is PDE9. The note with it: cited from earlier work.
The subject of the next experiment is BuChE. The arrangement: method as in PMID 31250747. To be noted: Figure 1; cited from earlier work.
Another experiment has as its system AChE. The arrangement: method as in PMID 31250747. The note with it: Figure 1; cited from earlier work.
A further experiment relates to HDAC6. The arrangement: method as in PMID 31441641. The note with it: Figure 1; cited from earlier work.
In experiment [1] the target is T1, PDE9 (catalytic domain of PDE9A2) (Homo sapiens, UniProt O76083).
T1 construct: PDE9 recombinant catalytic domain (amino acid 181–506); made in house; host or cells: E. coli BL21 (Codonplus)
T1 sequence (O76083 241-566): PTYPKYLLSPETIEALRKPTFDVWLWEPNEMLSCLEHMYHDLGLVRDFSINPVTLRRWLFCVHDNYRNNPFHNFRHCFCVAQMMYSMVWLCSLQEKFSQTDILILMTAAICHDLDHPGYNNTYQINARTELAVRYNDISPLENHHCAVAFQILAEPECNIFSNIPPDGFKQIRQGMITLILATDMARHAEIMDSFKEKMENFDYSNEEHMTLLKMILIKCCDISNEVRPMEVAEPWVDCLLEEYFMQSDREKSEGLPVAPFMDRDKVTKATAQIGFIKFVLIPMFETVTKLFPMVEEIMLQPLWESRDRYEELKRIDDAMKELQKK
The experiment can be described thus: Enzymatic assay against PDE9 (3H-cGMP hydrolysis, scintillation counting). To be noted: 0.25 h, read-out: Inhibition ratio against PDE9; for inhibition at 0.01 µM: at a concentration of 0.01 μM; for inhibition at 0.1 µM: at a concentration of 0.1 μM. The class given is biochemical. Here is the method: In brief, E. coli strain BL21 (Codonplus), which carrying with recombinant pET-PDE9A2 plasmid, was grown in LB medium (containing 100 μg/mL ampicillin and 0.4% glucose) at 37 °C until an OD600 achieved 0.6–0.8. Then, the temperature was turned down to 15 °C, and 0.1 mM iso-propyl-b-D-thiogalactopyranoside was added to LB medium to induce the expression of PDE9A2 protein. Bacteria were induced for 20 h and collected for purified PDE9A2 recombinant protein by a Ni-NTA column (Qiagen, Venlo, The Netherlands).
As for the enzymatic assays, ^3H-cGMP (20,000–30,000 cpm, GE Healthcare), the substrate for enzymatic assays against PDE9A2, were diluted in an assay buffer (containing 50 mM Tris-HCl (pH 8.0), 10 mM MgCl2, and 1 mM DTT). And then, the substrate ^3H-cGMP, catalytic domain of PDE9A2, and different concentrations of tested compounds were incubated at room temperature for 15 min. To terminate the reaction, 0.2 M ZnSO4 and 0.2 N Ba(OH)2 were added to the mixture, leaving unreacted ^3H-cGMP in the supernatant. […] Each compound was measured at a minimum of eight concentrations for the IC50 calculation and repeated at least three times.
4.Enzymatic assays against PDE9
The assay buffer contains 50 mM Tris-HCl (pH 8.0), 10 mM MgCl2 or 4 mM MnCl2, 1 mM DTT, and 10-20 nM 3H-cGMP (15000−30000 cpm/assay, CPM control). The reaction was carried out at room temperature for 15 min and then terminated by addition of 0.2 M ZnSO4. The reaction product 3H-GMP was precipitated out by […], whereas unreacted 3H-cGMP remained in the supernatant. The radioactivity in the supernatant was measured in 2.5 […]
(CPMenzyme). For the measurement of IC50 of inhibitors, at least seven concentrations of inhibitors were used in the presence of 3H-cGMP. The enzyme concentration in a range of 10− 100 ng/mL, which hydrolyzed 50- 70% of the substrate, was chosen for each inhibitory assay. The radioactivity was recorded as CPMinhibitor. The IC50 values for PDE9 were calculated using a nonlinear regression analysis.
Inhibition = […] × 100%

The nature of experiment [2]: Antioxidant activity, ORAC-FL method. To be noted: Trolox as standard. Here is the method: The modified Oxygen Radical Absorbance Capacity Fluorescein (ORAC-FL) method was used for antioxidant activity test. In brief, the mixture of test compounds (20 μL) and fluorescein (120 μL, final concentration of 150 nM) was added into a black 96-well plate and incubated for 15 min at 37 °C. Then, 60 μL of 2,2′-azobis(2-amidinopropane) dihydrochloride (AAPH) solution (12 mM) was added rapidly to induce the reaction. The fluorescence with an excitation wavelength of 485 nm and emission at 535 nm was measured in Spectrafluor Plus plate reader (Tecan, Crailsheim, Germany) every minute for 4 h. Integration of the area under the curve (AUC) was […] 1 to 8 μM Trolox was used as a standard. Each compound was tested at 1–10 μM at least in three independent assays. The ORAC-FL values of each compound were calculated according to Equation (1) and expressed as Trolox equivalents.(1) ORAC-FL value=AUCsample−AUCblank/AUCTrolox−AUCblank×ConcentrationTrolox/Concentrationsample

Where [3] appears, read: Figure 1, current PDE9 inhibitors.

pIC50: −log10 of the molar value. Read-outs that look alike come from different tables or passages of the source.

As for `O=c1[nH]c(Cc2ccccn2)nc2c1cnn2C1CCOCC1` [Compound 2, Osoresnontrine], in the experiment with PDE9 (setting [3]), the pIC50 was 7.19.
With `COc1cc(CNc2nc3c(cnn3C3CCCC3)c(=O)[nH]2)ccc1OC(=O)N(C)C` [Compound 4], the values for the pIC50 in the experiment with BuChE and in the experiment with PDE9 (setting [3]) were 6.02 and 7.77, respectively.
As for `O=c1[nH]c(COCCC2CCN(Cc3ccccc3)CC2)nc2c1cnn2C1CCCC1` [Compound 5], the pIC50 was 6.65 in the experiment with AChE and 6.55 in the experiment on PDE9 (setting [3]).
Consider `C[C@@H]1CN(Cc2ccc(C(=O)NO)cc2)C[C@H]1c1nc2c(cnn2C2CCCC2)c(=O)[nH]1` [Compound 6], for which the values for the pIC50 in the experiment with HDAC6 and in the experiment with PDE9 (setting [3]) were 7.40 and 6.97, respectively.
As to `CC(Cc1n[nH]c2ccccc12)Nc1nc2c(cnn2C2CCCC2)c(=O)[nH]1` (stereo not drawn) [Compound 17g, 6-((1-(1H-indazol-3-yl)propan-2-yl)amino)-1-cyclopentyl-1,5-dihydro-4H-pyrazolo[3,4-d]pyrimidin-4-one], in experiment [1], the inhibition at 0.01 µM amounted to 70% and the inhibition at 0.1 µM was 82%. The ORAC in experiment [2] is 0.17 ± 0.004 μmol of Trolox equiv/μmol tested compound.
For `COc1ccc2[nH]nc(CC(C)Nc3nc4c(cnn4C4CCCC4)c(=O)[nH]3)c2c1` (stereo not drawn) [Compound 17h, 1-cyclopentyl-6-((1-(5-methoxy-1H-indazol-3-yl)propan-2-yl)amino)-1,5-dihydro-4H-pyrazolo[3,4-d]pyrimidin-4-one], in that order: 65%, 69% and 0.22 ± 0.12 μmol of Trolox equiv/μmol tested compound.
Take `C[C@@H](NCc1c[nH]c2ccccc12)c1nc2c(cnn2C2CCCC2)c(=O)[nH]1` [Compound 18a, (R)-6-(1-(((1H-indol-3-yl)methyl)amino)ethyl)-1-cyclopentyl-1,5-dihydro-4H-pyrazolo[3,4-d]pyrimidin-4-one]: in experiment [1], the inhibition at 0.01 µM was found to be 46% and the inhibition at 0.1 µM was approximately 50%. Moreover, the ORAC in experiment [2] was 0.60 ± 0.06 μmol of Trolox equiv/μmol tested compound.
Regarding `C[C@@H](NCc1c[nH]c2ccc(F)cc12)c1nc2c(cnn2C2CCCC2)c(=O)[nH]1` [Compound 18b, (R)-1-cyclopentyl-6-(1-(((5-fluoro-1H-indol-3-yl)methyl)amino)ethyl)-1,5-dihydro-4H-pyrazolo[3,4-d]pyrimidin-4-one], in experiment [1], the inhibition at 0.01 µM was 61% and the inhibition at 0.1 µM stood at 76%. Besides, in experiment [2], the ORAC is given as 0.88 ± 0.08 μmol of Trolox equiv/μmol tested compound.
In the case of `C[C@@H](NCc1n[nH]c2ccccc12)c1nc2c(cnn2C2CCCC2)c(=O)[nH]1` [Compound 18e, (R)-6-(1-(((1H-indazol-3-yl)methyl)amino)ethyl)-1-cyclopentyl-1,5-dihydro-4H-pyrazolo[3,4-d]pyrimidin-4-one], the inhibition at 0.1 µM in experiment [1] is approximately 50%. For the same compound, in experiment [2], the ORAC is 0.15 ± 0.03 μmol of Trolox equiv/μmol tested compound.
As for `COc1ccc2[nH]nc(CN[C@H](C)c3nc4c(cnn4C4CCCC4)c(=O)[nH]3)c2c1` [Compound 18f, (R)-1-cyclopentyl-6-(1-(((5-methoxy-1H-indazol-3-yl)methyl)amino)ethyl)-1,5-dihydro-4H-pyrazolo[3,4-d]pyrimidin-4-one], the inhibition at 0.1 µM in experiment [1] was less than 30%. Further, the ORAC in experiment [2] is recorded as 0.24 ± 0.02 μmol of Trolox equiv/μmol tested compound.
For the compound `CC(Nc1nc2c(cnn2C2CCCC2)c(=O)[nH]1)c1ccc(Cl)cc1` (stereo not drawn) [Compound C33], the pIC50 with PDE9 (previously reported) was 7.80.

Broadly, the pIC50 is the IC50 on a negative log10 scale, so that one unit is a factor of ten.
